# Data as given in patent US20070105780A1, “Therapeutic agent for iNOS generating illness” (priority 2005, published 2007).
# Entries after “also recorded” stand apart in the source; their conditions may differ. Where a SMILES comes first, the peptide text is derived from it. [ ]: non-standard residue; d: D form. The star is where a group is joined. Sta = CC(C)C[C@H](N)[C@@H](O)CC(=O)O; Isovaleryl = CC(C)CC(=O)*; Nle = CCCC[C@H](N)C(=O)O
# Legend:
# [1] = system: proteolytic cleavage of iNOS in induced DLD-1-5B2 cells; assay: Inhibition of the cleavage of iNOS in situ in induced DLD-1-5B2 cells (Western blot of particulate fraction); type: cell-based, human; details: nine hours; for fragmentation (proteolytic cleavage) of iNOS in situ: 24-well plates, 20 μg/well, inhibitor added three hours after start of induction, Western blot FIG. 8; for fragmentation (proteolytic cleavage) of iNOS in situ, larger scale production: T-75 flasks, inhibitor added 3 hours after induction, Western blot FIG. 9
# Description: DLD-1-5B2 cells, two days past confluence, were induced to express human iNOS using a mixture of recombinant human gamma interferon (rhIFNγ) at 8.33 ng/ml, recombinant human tumor necrosis factor-alpha (rhTNFα) at 3.3 ng/ml, and recombinant human interleukin-1β (rhIL-1β) at 3.3 ng/ml for 12-18 hours before being washed and harvested with trypsin/EDTA. The induced cells were washed three times with sterile PBS, transferred into sterile tubes in a small volume of sterile PBS, and stored frozen at −20° C. until processed for the isolation and fractionation of iNOS.
# The frozen, induced DLD-1-5B2 cells were thawed in an ice water bath and lysed by two rapid freeze/thaw cycles using dry ice. The iNOS produced by the induced DLD-1-5B2 cells was then fractionated into a supernatant (soluble) fraction and a particulate fraction. The lysed cells were centrifuged at 16,000×g at 4° C. for 30 minutes to pellet the particulate fraction. The supernatant fraction that contained the soluble iNOS was transferred and stored at −20° C. or used fresh. The pellets were washed once, resuspended in a small volume of ice cold sterile PBS, and the resulting particulate fraction of iNOS was stored at −20° C. or used fresh.
# The ability of six specific protease inhibitors to inhibit the cleavage of iNOS in situ was investigated using induced DLD-1-5B2 cells cultured in 24-well plates. Briefly, DLD-1-5B2 cells were cultured in 24-well plates instead of T-75 flasks, as described previously. Two days past confluence, the cells were induced with the same mixture of cytokines, but after three hours, the induction medium was removed from each well, the cells washed with pre-warmed sterile saline, and the medium replaced either with fresh DMEM, or with DMEM containing one of the six protease inhibitors being tested. Each inhibitor was assayed in triplicate at 20 μg/well. Nine hours later (12 hours after the start of the induction) the medium containing the inhibitors was removed, the cells were washed three times with ice-cold PBS, and the 24-well plates were placed on sheets of ice for 10 minutes to loosen the cells from the bottom of the plastic wells. The cells were blown off each well individually using a mechanical pipettor, sterile pipet tips, and ice-cold, sterile PBS. The cells were transferred to individual microfuge tubes on ice, collected by centrifugation, and washed twice with sterile, ice-cold PBS. No trypsin or other protease or EDTA was used during the harvesting or processing of the induced cells. The cells were lysed by 2 freeze/thaw cycles using dry ice and processed as previously described to isolate a supernatant fraction and a particulate fraction by centrifugation at 16,000×g. Both fractions were assayed in duplicate using the chemiluminescent EIA taught in U.S. patent application Ser. No. 09/628,585, and pools of the triplicate samples obtained for each protease inhibitor were analyzed by western blot. No statistically significant difference was found in the amount of iNOS contained in any of the supernatant fractions when compared to other supernatant fractions. Likewise, no statistically significant difference was found in the amount of iNOS contained in any of the particulate fractions when compared to other particulate fractions as measured by the EIA. Further, the distribution of iNOS between the supernatant and particulate fractions was similar for all the samples: the percent of the total iNOS in the supernatant fraction ranged from 55% to 65% and the percent of the total iNOS in the particulate fraction ranged from 35% to 45%. However, as is shown in FIG. 8, a difference in the form of the iNOS was found in the particulate fractions obtained from two of the protease inhibitors.
# The quantity of particulate fraction produced was scaled up in T-75 culture flasks for both of these protease inhibitors in order to make enough material to be tested for their individual lethality in our mouse model of sepsis. […]
# mouse model of sepsis = assay: Lethality of particulate fractions produced in presence of protease inhibitors, mouse model of sepsis; type: in vivo; details: LPS primed mice, N=10 per group; E-64 vs no inhibitor P<0.0002, vs SBTI P<0.002
# Description: It was reasoned that the conversion of soluble iNOS to particulate iNOS, and thereby to lethal iNOS, might be the result of the proteolytic cleavage of the intact protein molecule. It was hypothesized that decreasing the cleavage process might be beneficial to septic patients since the lethal form of iNOS would be reduced or eliminated. This hypothesis was tested using various protease inhibitors. The loss of lethality produced by specific protease inhibitors was assessed by testing the lethal effects exerted by the administration of the particulate iNOS produced in the presence and absence of protease inhibitors to LPS primed mice.
# The three particulate fractions prepared in Example IX were tested for their lethality on groups of mice (5 female and 5 male mice per group, N=10) using our mouse model of sepsis. […] It is believed that treatment of septic patients with a protease inhibitor that decreases or stops the cleavage of iNOS in vivo could serve as an effective therapy for SIRS, sepsis, severe sepsis and septic shock.
# calpain = target: T1, calpain (Mus musculus, UniProt O35350); details: supernatant fraction of dexamethasone treated, induced cell lysate; cited from earlier work
# T1 construct: enzymatic activity of calpain in the supernatant fraction of the dexamethasone treated, induced cell lysate
# T1 sequence (O35350 1-713): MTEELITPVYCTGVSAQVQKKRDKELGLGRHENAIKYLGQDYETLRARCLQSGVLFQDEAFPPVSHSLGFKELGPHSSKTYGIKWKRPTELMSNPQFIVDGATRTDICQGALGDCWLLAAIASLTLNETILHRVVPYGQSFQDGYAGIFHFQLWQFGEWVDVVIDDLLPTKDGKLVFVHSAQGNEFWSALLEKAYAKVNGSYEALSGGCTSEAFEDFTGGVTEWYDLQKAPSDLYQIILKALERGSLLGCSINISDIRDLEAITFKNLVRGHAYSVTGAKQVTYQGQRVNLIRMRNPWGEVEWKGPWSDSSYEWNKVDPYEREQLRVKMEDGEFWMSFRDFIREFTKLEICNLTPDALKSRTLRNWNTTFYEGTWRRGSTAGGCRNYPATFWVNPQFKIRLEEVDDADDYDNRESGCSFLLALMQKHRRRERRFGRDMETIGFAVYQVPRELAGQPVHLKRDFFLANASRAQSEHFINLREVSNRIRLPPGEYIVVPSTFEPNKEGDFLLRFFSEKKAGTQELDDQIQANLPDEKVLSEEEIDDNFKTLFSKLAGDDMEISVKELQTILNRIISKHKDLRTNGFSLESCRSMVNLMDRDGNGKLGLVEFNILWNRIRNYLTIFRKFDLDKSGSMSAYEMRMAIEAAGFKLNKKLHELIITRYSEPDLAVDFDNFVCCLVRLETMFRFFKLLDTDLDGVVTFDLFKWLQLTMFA
# T1 sequence (O88456 1-268 partner): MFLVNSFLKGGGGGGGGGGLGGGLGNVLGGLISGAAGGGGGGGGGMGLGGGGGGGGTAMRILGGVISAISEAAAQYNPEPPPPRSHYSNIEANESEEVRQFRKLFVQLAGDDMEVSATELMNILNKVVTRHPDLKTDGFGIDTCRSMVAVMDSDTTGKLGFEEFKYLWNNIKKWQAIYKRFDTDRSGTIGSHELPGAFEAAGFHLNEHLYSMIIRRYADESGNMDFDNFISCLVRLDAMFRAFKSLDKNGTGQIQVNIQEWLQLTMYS
molecule,measurement,setting,value
α1-protease inhibitor: protease inhibitor,fragmentation (proteolytic cleavage) of iNOS in situ,[1],did not stop (inhibit) this cleavage process
same,lethality of the particulate iNOS fraction isolated from cells induced in the presence of the inhibitor,mouse model of sepsis,had no effect on the lethality of the particulate iNOS fraction
CC(C)CC(=O)N[C@H](C(=O)N[C@H](C(=O)N[C@@H](CC(C)C)[C@@H](O)CC(=O)N[C@@H](C)C(=O)N[C@@H](CC(C)C)[C@@H](O)CC(=O)O)C(C)C)C(C)C [pepstatin-A] (Isovaleryl-VV[Sta]A[Sta]-OH),fragmentation (proteolytic cleavage) of iNOS in situ,[1],did not stop (inhibit) this cleavage process
same,lethality of the particulate iNOS fraction isolated from cells induced in the presence of the inhibitor,mouse model of sepsis,had no effect on the lethality of the particulate iNOS fraction
aprotinin,fragmentation (proteolytic cleavage) of iNOS in situ,[1],did not stop (inhibit) this cleavage process
CCCC[C@@H](C=O)NC(=O)[C@H](CC(C)C)NC(=O)[C@H](CC(C)C)NC(C)=O [Ac-Leu-Leu-NLeu-al] (Ac-Leu-Leu-[Nle]-aldehyde),cleavage of recombinant iNOS protein by calpain,calpain,inhibit such cleavage
CC(C)C[C@H](NC(=O)[C@H]1O[C@@H]1C(=O)O)C(=O)NCCCCN=C(N)N [E-64],fragmentation (proteolytic cleavage) of iNOS in situ,[1],inhibited the proteolytic cleavage of the intact iNOS protein; also recorded: stopped (inhibited) the fragmentation of iNOS in situ
same,"fragmentation (proteolytic cleavage) of iNOS in situ, larger scale production",[1],inhibiting the proteolytic cleavage of intact iNOS protein; also recorded: inhibit the fragmentation of iNOS in situ
same,lethality of the particulate iNOS fraction isolated from cells induced in the presence of the inhibitor,mouse model of sepsis,decrease the lethality of the particulate iNOS fraction; also recorded: statistically significant decrease in lethality
same,cleavage of recombinant iNOS protein by calpain,calpain,inhibit such cleavage
"CC(=O)N[C@@H](CC(C)C)C(=O)N[C@@H](CC(C)C)C(=O)N[C@H](C=O)CCCNC(=N)N [Leupeptin, leupeptin]",fragmentation (proteolytic cleavage) of iNOS in situ,[1],stopped (inhibited) the fragmentation of iNOS in situ
same,fragmentation (proteolytic cleavage) of iNOS in situ,[1]; listed as leupeptin,inhibited the proteolytic cleavage of the intact iNOS protein
same,lethality of the particulate iNOS fraction isolated from cells induced in the presence of the inhibitor,mouse model of sepsis,decrease the lethality of the particulate iNOS fraction
same,cleavage of recombinant iNOS protein by calpain,calpain,inhibit such cleavage
"soybean trypsin inhibitor: protease inhibitor (protein, UniProt P01070 25-205, looked up) Trypsin inhibitor A: DFVLDNEGNPLENGGTYYILSDITAFGGIRAAPTGNERCPLTVVQSRNELDKGIGTIISSPYRIRFIAEGHPLSLKFDSFAVIMLCVGIPTEWSVVEDLPEGPAVKIGENKDAMDGWFRLERVSDDEFNNYKLVFCPQQAEDDKCGDIGISIDHDDGTRRLVVSKNKPLVVQFQKLDKESL",fragmentation (proteolytic cleavage) of iNOS in situ,[1],did not stop (inhibit) this cleavage process
same,"fragmentation (proteolytic cleavage) of iNOS in situ, larger scale production",[1],inability of soybean trypsin inhibitor (lane 2) to inhibit this cleavage process
same,lethality of the particulate iNOS fraction isolated from cells induced in the presence of the inhibitor,mouse model of sepsis,had no effect on the lethality of the particulate iNOS fraction
